From PubChem BioAssay (NCI)
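Test compounds were applied to cells in 96-well plates for 48 hours at 5 doses. GI50 is the concentration that inhibits growth by half. TGI marks complete inhibition of growth.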

Assays:
Assay in all cases: NCI-60 cell line screen, 48 h
UO-31 renal = system: UO-31 renal
SF-268 CNS = system: SF-268 CNS
TK-10 renal = system: TK-10 renal
SR leukemia = system: SR leukemia
T-47D breast = system: T-47D breast
786-0 renal = system: 786-0 renal
A549 NSCLC = system: A549 NSCLC
OVCAR-3 ovarian = system: OVCAR-3 ovarian
IGROV1 ovarian = system: IGROV1 ovarian
OVCAR-5 ovarian = system: OVCAR-5 ovarian
SN12C renal = system: SN12C renal

COc1cc(C2c3cc4c(cc3OC(N3CCCCC3)C2C)OCO4)cc(OC)c1O (stereo not drawn)
TGI (UO-31 renal): 34.8 µM
TGI (SF-268 CNS): > 53.8 µM
TGI (TK-10 renal): 38.5 µM
TGI (SR leukemia): > 44.5 µM
TGI (T-47D breast): > 60.2 µM
TGI (786-0 renal): 27.7 µM
TGI (A549 NSCLC): 27.1 µM
TGI (OVCAR-3 ovarian): 19.8 µM
TGI (IGROV1 ovarian): 36.4 µM
TGI (OVCAR-5 ovarian): 41.3 µM
TGI (SN12C renal): 27.5 µM

CN1CCc2c([nH]c3ccccc23)C1
TGI (UO-31 renal): > 100 µM
TGI (SF-268 CNS): > 100 µM
TGI (TK-10 renal): > 100 µM
TGI (SR leukemia): > 100 µM
TGI (T-47D breast): > 100 µM
TGI (786-0 renal): > 100 µM
TGI (A549 NSCLC): > 100 µM
TGI (OVCAR-3 ovarian): > 100 µM
TGI (IGROV1 ovarian): > 100 µM
TGI (OVCAR-5 ovarian): > 100 µM
TGI (SN12C renal): > 100 µM

CN(C)c1ccc(/C=c2/c3ccccc3n3c2c2c([n+]3C)CCCC2)cc1
TGI (UO-31 renal): 6.5 µM
TGI (SF-268 CNS): 1.6 µM
TGI (TK-10 renal): 1.55 µM
TGI (SR leukemia): 1.06 µM
TGI (T-47D breast): 0.362 µM
TGI (786-0 renal): 3.24 µM
TGI (A549 NSCLC): 1.96 µM
TGI (OVCAR-3 ovarian): 1.17 µM
TGI (IGROV1 ovarian): 1.82 µM
TGI (OVCAR-5 ovarian): 5.86 µM
TGI (SN12C renal): 1.59 µM

Cc1ccc(/C=N/Nc2cc(C)c3cccc(C)c3n2)s1
TGI (UO-31 renal): 38.7 µM
TGI (SF-268 CNS): 64.2 µM
TGI (TK-10 renal): > 100 µM
TGI (SR leukemia): > 100 µM
TGI (T-47D breast): > 100 µM
TGI (786-0 renal): 11 µM
TGI (A549 NSCLC): 26.3 µM
TGI (OVCAR-3 ovarian): 22.2 µM
TGI (IGROV1 ovarian): 22.2 µM
TGI (OVCAR-5 ovarian): 28.2 µM
TGI (SN12C renal): 25.1 µM

CC1=NN(c2nc(N)nc(/C(C#N)=C\c3ccc([N+](=O)[O-])s3)n2)C(C)(C)C1
TGI (UO-31 renal): 0.278 µM
TGI (SF-268 CNS): > 100 µM
TGI (TK-10 renal): 1.26 µM
TGI (SR leukemia): 0.152 µM
TGI (T-47D breast): 0.264 µM
TGI (786-0 renal): 0.289 µM
TGI (A549 NSCLC): 16.5 µM
TGI (OVCAR-3 ovarian): 0.404 µM
TGI (IGROV1 ovarian): 0.287 µM
TGI (OVCAR-5 ovarian): 21.5 µM
TGI (SN12C renal): 1.51 µM

O=[N+]([O-])c1ccc(CN(CCCl)OCCCl)cc1
TGI (UO-31 renal): > 100 µM
TGI (SF-268 CNS): > 100 µM
TGI (TK-10 renal): > 100 µM
TGI (SR leukemia): > 100 µM
TGI (T-47D breast): > 100 µM
TGI (786-0 renal): > 100 µM
TGI (A549 NSCLC): > 100 µM
TGI (OVCAR-3 ovarian): > 100 µM
TGI (IGROV1 ovarian): > 100 µM
TGI (OVCAR-5 ovarian): > 100 µM
TGI (SN12C renal): > 100 µM

Cc1ccnc2[nH]c(-c3ccc4ccccc4c3)cc(=O)c12
TGI (UO-31 renal): 16 µM
TGI (SF-268 CNS): 39.4 µM
TGI (TK-10 renal): 13.4 µM
TGI (SR leukemia): 0.919 µM
TGI (T-47D breast): 34.6 µM
TGI (786-0 renal): 5.97 µM
TGI (A549 NSCLC): 16.1 µM
GI50 (OVCAR-3 ovarian): 1.29 µM
TGI (OVCAR-3 ovarian): 4.51 µM
TGI (IGROV1 ovarian): 11.1 µM
TGI (OVCAR-5 ovarian): 23.5 µM
TGI (SN12C renal): 18.7 µM
